Test results as given in ChEMBL document CHEMBL1133347, “Synthesis of NF-kappaB activation inhibitors derived from epoxyquinomicin C” (Bioorg Med Chem Lett, 2000).

Legend:
Jurkat [1] = assay: Compound was assessed for NF-kB activity using human T cell leukemia Jurkat cells; Less toxic; assay type: functional, cell-based
Mus musculus = species on record: Mus musculus; assay: Compound was tested for antiarthritic effects on type-II collagen induced arthritis in DBA1/J mice; inhibited; assay type: functional, organism-based
Jurkat [2] = assay: Compound was assessed for NF-kB activity using human T cell leukemia Jurkat cells; more toxic; assay type: functional, cell-based

## O=C(NC1=CC(=O)[C@H]2O[C@H]2[C@H]1O)c1ccccc1O
Jurkat [1]
  Activity: Toxic
Mus musculus
  Activity: Inhibited

## O=C(NC1=CC(O)C2OC2C1=O)c1ccccc1O (stereo not drawn)
Jurkat [2]
  Activity: Toxic
